Measured values published in PubChem BioAssay AID602308 (Southern Research Specialized Biocontainment Screening …, 2012).
The source made the active and inactive calls. The rule behind the calls is not given here.

Target: Flavivirus NS5 methyltransferase / guanylyltransferase (capping enzyme)
Test: flavivirus capping enzyme inhibitors, confirmation, biochemical (AID 602308)
Details: Flavivirus NS5 capping enzyme biochemical inhibition assay; for inhibition: at 100 µM (top of the series)

SMILES	IC50	inhibition
O=C(O)CSc1cc(NS(=O)(=O)c2cccc3cccnc23)c2ccccc2c1O	6.62 µM	–
O=C(O)CSc1cc(NS(=O)(=O)c2ccc(F)cc2)c2ccccc2c1O	7.32 µM	–
Cc1cc(C)c(S(=O)(=O)Nc2cc(SCC(=O)O)c(O)c3ccccc23)c(C)c1	6.95 µM	–
Cn1c(=O)c2[nH]c(-c3ccccc3)c(O)c2n(C)c1=O	28.1 µM	–
Cn1c(=O)c2[nH]c(-c3ccccc3)nc2n(C)c1=O	–	inactive
Cc1nc2nc(-c3ccccc3)cn2nc1C	–	inactive
Cc1ccc(-c2cn3nc(C)c(C)nc3n2)cc1	–	inactive
O=C(O)CSc1cc(NS(=O)(=O)c2ccc(Cl)cc2)c2ccccc2c1O	5.45 µM	–
CN(C)C(=O)c1ccc2nc(-c3ccccc3)cn2c1	–	inactive
O=S(=O)(Nc1cc(Cl)c(O)c2ccccc12)c1ccc(F)cc1	17.8 µM	–
O=S(=O)(Nc1cc(Sc2ncn[nH]2)c(O)c2ccccc12)c1ccc(F)cc1	10.2 µM	–
Cc1nc2nc(-c3ccc(F)cc3)cn2nc1C	–	inactive
O=[N+]([O-])c1cccc(S(=O)(=O)Nc2cc(Sc3nc4ccccc4s3)c(O)c3ccccc23)c1	34.3 µM	–
Clc1ccc2nc(-c3ccccc3)cn2c1	–	inactive
Cc1cc(F)ccc1S(=O)(=O)Nc1cc(SCC(=O)O)c(O)c2ccccc12	5.66 µM	–
Cn1c(=O)c2[nH]c(-c3cccc4ccccc34)c(O)c2n(C)c1=O	–	inactive
O=C(O)CSc1cc(NS(=O)(=O)c2cccc([N+](=O)[O-])c2)c2ccccc2c1O	3.83 µM	–
Cc1ccc2nc(-c3ccccc3)cn2c1	–	inactive
Cn1c(=O)c2cnc(-c3ccccc3)nc2n(C)c1=O	–	inactive
Cc1ccc(S(=O)(=O)Nc2cc(SCC(=O)O)c(O)c3ccccc23)cc1	6.24 µM	–
O=[N+]([O-])c1cccc(S(=O)(=O)Nc2cc(SCc3ccccc3)c(O)c3ccccc23)c1	14.8 µM	–
O=S(=O)(Nc1cc(SCc2ccccc2)c(O)c2ccccc12)c1ccc(Cl)cc1	43.3 µM	–
O=S(=O)(Nc1cc(Sc2ccccc2)c(O)c2ccccc12)c1ccc(F)cc1	35.6 µM	–
COc1ccc(OC)c(S(=O)(=O)Nc2cc(SCC(=O)O)c(O)c3ccccc23)c1	9.09 µM	–
Cc1nc2nc(-c3ccc(Cl)cc3)cn2nc1C	–	inactive
Clc1ccc2nc(-c3cccs3)cn2c1	–	inactive
Cc1ccc(S(=O)(=O)Nc2cc(Sc3nc(C)cc(C)n3)c(O)c3ccccc23)cc1	83.8 µM	–
Cc1ccn2cc(-c3ccccc3)nc2c1	–	inactive
Cn1c(=O)c2[nH]c(-c3ccc(Cl)cc3)c(O)c2n(C)c1=O	57.8 µM	–
O=C(O)CSc1cc(NS(=O)(=O)c2ccc(Br)cc2)c2ccccc2c1O	4.96 µM	–
